From US20240226098A1, “COMPOUNDS AND METHODS FOR MODULATING SPLICING” (REMIX THERAPEUTICS INC., priority 2020, published 2024)
Where a name gives a salt, the structure may show the parent alone.

Assays:
Type in all cases: cell-based
[1] = tested on: HTT mRNA, alternative junction (AJ); experiment: Splicing assay (RT-qPCR): increase in HTT alternative junction (AJ) mRNA; conditions: A673 or K562 cell line, 24 hours treatment, top dose 10 uM; concentration having 50% response in AJ increase
Experimental: (§1) Compounds described herein were used to modulate RNA transcript abundance in cells. The expression of a target mRNA was measured by detecting the formation of an exon-exon junction in the canonical transcript (CJ). A compound mediated exon-inclusion event was detected by observing an increase in formation of a new junction with an alternative exon (AJ). Real-time qPCR assays were used to detect these splicing switches and interrogate the potency of various compounds towards different target genes. A high-throughput real time quantitative PCR (RT-qPCR) assay was developed to measure these two isoforms of the mRNA (CJ and AJ) for an exemplary gene, HTT, together with a control housekeeping gene, GAPDH or GUSB or PPIA, used for normalization. Briefly, the A673 or K562 cell line was treated with various compounds described herein (e.g., compounds of Formula (I)). After treatment, the levels of the HTT mRNA targets were determined from each sample of cell lysate by cDNA synthesis followed by qPCR.
(§2) • Cells-to-CT 1-step kit: ThermoFisher A25602, Cells-to-CT lysis reagent: ThermoFisher 4391851C, TaqMan™ Fast Virus 1-Step Master Mix: ThermoFisher 4444436 • GAPDH: VIC-PL, ThermoFisher 4326317E (Assay: Hs99999905_ml)—used for K562/suspension cell lines • GUSB: VIC-PL, ThermoFisher 4326320E (Assay: Hs99999908_ml)—used for K562/suspension cell lines • PPIA: VIC-PL, ThermoFisher 4326316E (Assay: Hs99999904_ml)—used for A673/adherent cell lines
(§3) The A673 cell line was cultured in DMEM with 10% FBS. Cells were diluted with full growth media and plated in a 96-well plate (15,000 cells in 100 ul media per well). The plate was incubated at 37° C. with 5% CO2 for 24 hours to allow cells to adhere. An 11-point 3-fold serial dilution of the compounds was made in DMSO then diluted in media in an intermediate plate. Compounds were transferred from the intermediate plate to the cell plate with the top dose at a final concentration of 10 uM in the well. Final DMSO concentration was kept at or below 0.25%. The cell plate was returned to the incubator at 37° C. with 5% CO2 for an additional 24 hours.
(§4) The K562 cell line was cultured in IMDM with 10% FBS. For K562, cells were diluted with full growth media and plated in either a 96-well plate (50,000 cells in 50 uL media per well) or a 384-well plate (8,000-40,000 cells in 45 uL media per well). An 11-point 3-fold serial dilution of the compounds were made in DMSO then diluted in media in an intermediate plate. Compound was transferred from the intermediate plate to the cell plate with the top dose at a final concentration of 10 uM in the well. Final DMSO concentration was kept at or below 0.25%. Final volume was 100 uL for 96-well plate and 50 uL for 384-well plate. The cell plate was then placed in an incubator at 37° C. with 5% CO2 for 24 hours.
(§5) The cells were then gently washed with 50 uL-100 uL cold PBS before proceeding to addition of lysis buffer. 30 uL-50 uL of room temperature lysis buffer with DNAse I (and optionally RNAsin) was added to each well. Cells were shaken/mixed thoroughly at room temperature for 5-10 minutes for lysis to take place and then 3 uL-5 uL of room temperature stop solution was added and wells were shaken/mixed again. After 2-5 minutes, the cell lysate plate was transferred to ice for RT-qPCR reaction setup. The lysates could also be frozen at −80° C. for later use.
(§6) In some cases, a direct lysis buffer was used. An appropriate volume of 3× lysis buffer (10 mM Tris, 150 mM NaCl, 1.5%-2.5% Igepal and 0.1-1 U/uL RNAsin, pH 7.4) was directly added to either K562 or A673 cells in media and mixed by pipetting 3 times. The plates were then incubated at room temperature with shaking/rocking for 20-50 minutes to allow for lysis to take place. After this time, the cell lysate plate was transferred to ice to set up for the RT-qPCR reactions. The lysates could also be frozen at −80° C. for later use. […]

[2] = tested on: HTT mRNA, canonical junction (CJ); experiment: Splicing assay (RT-qPCR): decrease in HTT canonical junction (CJ) mRNA; conditions: A673 or K562 cell line, 24 hours treatment, top dose 10 uM; concentration having 50% response in CJ decrease
Experimental: as §1, §2, §3, §4, §5, §6

SMN2 CJ mRNA = experiment: Gene panel canonical junction qPCR assay: decrease in SMN2 CJ mRNA; conditions: protocol as for Table 2, read-out: SMN2 (IC50, decrease in CJ mRNA levels)
Experimental: as §1, §3, §4, §5
(§7) In some cases, a direct lysis buffer was used. An appropriate volume of 3× lysis buffer (10 mM Tris, 150 mM NaCl, 1.5%-2.5% Igepal and 0.1-1 U/uL RNAsin, pH 7.4) was directly added to either K562 or A673 cells in media and mixed by pipetting 3 times. The plates were then incubated at room temperature with shaking/rocking for 20-50 minutes to allow for lysis to take place. After this time, the cell lysate plate was transferred to ice to set up for the RT-qPCR reactions. The lysates could also be frozen at −80° C. for later use.
(§8) To set up 10 uL RT-qPCR reactions, cell lysates were transferred to 384-well qPCR plates containing the master mix according to the table below. The plates were sealed, gently vortexed, and spun down before the run. The volumes were adjusted accordingly in some instances where the reaction was carried in 20 uL. The table below summarizes the components of the RT-qPCR reactions:
(§9) The RT-qPCR reaction was performed using a QuantStudio (ThermoFisher) under the following fast cycling conditions. […]

HTT CJ mRNA = experiment: Gene panel canonical junction qPCR assay: decrease in HTT CJ mRNA; conditions: protocol as for Table 2, read-out: HTT (IC50, decrease in CJ mRNA levels)
Experimental: as §1, §3, §4, §5, §7, §8, §9

IC50 (SMN2 CJ mRNA) [nM]	IC50 (HTT CJ mRNA) [nM]	SMILES	AC50 [1] [nM]	AC50 [2] [nM]
–	–	Cc1cn2cc(NC(=O)c3ccc(N4CC(C)(C)NC(C)(C)C4)c4ccnnc34)cc(F)c2n1 [Compound 104, N-[8-fluoro-2-methylimidazo[1,2-a]pyridin-6-yl]-5-(3,3,5,5-tetramethylpiperazin-1-yl) cinnoline-8-carboxamide]	1000 to 10000	1000 to 10000
–	–	Cc1cn2cc(NC(=O)c3ccc(N4CCNC5(CC5)C4)c4ccnnc34)cc(F)c2n1 [Compound 105, 5-[4,7-diazaspiro [2.5]octan-7-yl]-N-[8-fluoro-2-methylimidazo[1,2-a]pyridin-6-yl] cinnoline-8-carboxamide hydrochloride]	1000 to 10000	1000 to 10000
–	–	Cc1cn2cc(NC(=O)c3ccc(N4CCNC(C)(C)C4)c4ccnnc34)cc(F)c2n1 [Compound 106, 5-(3,3-dimethylpiperazin-1-yl)-N-[8-fluoro-2-methylimidazo[1,2-a]pyridin-6-yl] cinnoline-8-carboxamide hydrochloride]	1000 to 10000	100 to 1000
–	–	Cc1cn2cc(NC(=O)c3ccc(N4CCN5CCCC5C4)c4ccnnc34)cc(F)c2n1 (centres unmarked) [Compound 107]	100 to 1000	1000 to 10000
100 to 1000	1000 to 10000	Cc1cn2cc(NC(=O)c3ccc(N4CCC(NC(C)(C)C)C4)c4ccnnc34)cc(F)c2n1 (centres unmarked) [Compound 109, 5-[3-(tert-butylamino)pyrrolidin-1-yl]-N-[8-fluoro-2-methylimidazo[1,2-a]pyridin-6-yl]cinnoline-8-carboxamide]	1000 to 10000	1000 to 10000
–	–	Cc1cn2cc(NC(=O)c3ccc(N4CCNCC4)c4ncnnc34)cc(F)c2n1 [Compound 110, N-[8-fluoro-2-methylimidazo[1,2-a]pyridin-6-yl]-5-(piperazin-1-yl)-1,2,4-benzotriazine-8-carboxamide]	1000 to 10000	1000 to 10000
> 10000	> 10000	COc1ccc2c(N3CCNCC3)ccc(-c3cc(F)c4nc(C)cn4c3)c2n1 [Compound 114, 8-[8-fluoro-2-methylimidazo[1,2-a]pyridin-6-yl]-2-methoxy-5-(piperazin-1-yl) quinoline]	> 10000	> 10000
< 100	1000 to 10000	Cc1cn2cc(NC(=O)c3ccc(N4CCN(C)C(C)C4)c4ccnnc34)cc(F)c2n1 (centres unmarked) [Compound 129, 5-(3,4-dimethylpiperazin-1-yl)-N-[8-fluoro-2-methylimidazo [1,2-a]pyridin-6-yl]cinnoline-8-carboxamide]	1000 to 10000	1000 to 10000
< 100	1000 to 10000	CCC1CN(c2ccc(C(=O)Nc3cc(F)c4nc(C)cn4c3)c3nnccc23)CCN1 (centres unmarked) [Compound 130, 5-(3-ethylpiperazin-1-yl)-N-[8-fluoro-2-methylimidazo[1,2-a]pyridin-6-yl] cinnoline-8-carboxamide hydrochloride]	1000 to 10000	1000 to 10000
–	–	Cc1cn2cc(NC(=O)c3ccc(N(C)C4CC(C)(C)NC(C)(C)C4)c4ccnnc34)cc(F)c2n1 [Compound 135, N-[8-fluoro-2-methylimidazo[1,2-a]pyridin-6-yl]-5-[methyl(2,2,6,6-tetramethylpiperidin-4-yl)amino]cinnoline-8-carboxamide]	1000 to 10000	100 to 1000
–	–	Cc1cn2cc(NC(=O)c3ccc(N(C)C4CCN(C)CC4)c4ccnnc34)cc(F)c2n1 [Compound 136, N-[8-fluoro-2-methylimidazo[1,2-a]pyridin-6-yl]-5-[methyl(1-methylpiperidin-4-yl)amino] cinnoline-8-carboxamide]	1000 to 10000	1000 to 10000
–	–	CCNC1CCN(c2ccc(C(=O)Nc3cc(F)c4nc(C)cn4c3)c3nnccc23)CC1 [Compound 139, 5-[4-(ethylamino)piperidin-1-yl]-N-[8-fluoro-2-methylimidazo[1,2-a]pyridin-6-yl]cinnoline-8-carboxamide]	1000 to 10000	1000 to 10000
